According to PubChem BioAssay AID1745844 (Carcinogenic Potency Database (CPDB), 2022):
The source made the active and inactive calls. How the calls were made is not given here.

System: rodent lifetime carcinogenesis bioassay, tumor incidence TD50
Experiment: carcinogenic potency in animals, long-term in vivo studies, CPDB compilation (AID 1745844)

In the case of CN(C)CCC(c1ccc(Cl)cc1)c1ccccn1 (centres undefined), the carcinogen call (mouse, strain B6C3F1, females, by gavage, site: any site (literature study), lesion: several types, types named in the paper, dosed 103 weeks, study length 104 weeks) is reported as “negative (inactive)”, the TD50 (mouse, strain B6C3F1, males, by gavage, site: adrenal capsule, lesion: adenoma, NOS, dosed 103 weeks, study length 104 weeks) is reported as 84 mg/kg/day (inactive) and the TD50 (mouse, strain B6C3F1, males, by gavage, site: any site (literature study), lesion: several types, types named in the paper, dosed 103 weeks, study length 104 weeks) is reported as 54.1 mg/kg/day. The TD50 (mouse, strain B6C3F1, males, by gavage, site: liver, lesion: hepatocellular adenoma + hepatocellular carcinoma + neoplastic nodule, dosed 103 weeks, study length 104 weeks) was 101 mg/kg/day, the TD50 (mouse, strain B6C3F1, males, by gavage, site: subcutaneous tissue, lesion: fibrosarcoma + fibroma + neurofibrosarcoma + sarcoma, NOS, dosed 103 weeks, study length 104 weeks) was 94.7 mg/kg/day and the TD50 (mouse, strain B6C3F1, males, by gavage, site: subcutaneous tissue, lesion: fibrosarcoma + neurofibrosarcoma + sarcoma, NOS, dosed 103 weeks, study length 104 weeks) was 95.2 mg/kg/day. For the same compound, the TD50 (mouse, strain B6C3F1, males, by gavage, site: subcutaneous tissue, lesion: fibrosarcoma, dosed 103 weeks, study length 104 weeks) was 140 mg/kg/day, the carcinogen call (rat, strain Fischer 344, females, by gavage, site: any site (literature study), lesion: several types, types named in the paper, dosed 103 weeks, study length 104 weeks) was “negative (inactive)” and the TD50 (rat, strain Fischer 344, females, by gavage, site: liver, lesion: hepatocellular adenoma + hepatocellular carcinoma + neoplastic nodule, dosed 103 weeks, study length 104 weeks) was 3180 mg/kg/day. For the same compound, the carcinogen call (rat, strain Fischer 344, females, in feed, site: liver, lesion: neoplastic nodule, dosed 106 weeks, study length 128 weeks) was “negative (inactive)”, the carcinogen call (rat, strain Fischer 344, males, by gavage, site: any site (literature study), lesion: several types, types named in the paper, dosed 103 weeks, study length 104 weeks) was “negative (inactive)” and the TD50 (rat, strain Fischer 344, males, by gavage, site: liver, lesion: hepatocellular adenoma + hepatocellular carcinoma + neoplastic nodule, dosed 103 weeks, study length 104 weeks) was 208 mg/kg/day. For the same compound, the carcinogen call (rat, strain Fischer 344, males, in feed, site: liver, lesion: neoplastic nodule, dosed 106 weeks, study length 128 weeks) was “negative (inactive)”.

With COc1c2occc2cc2ccc(=O)oc12 the TD50 (mouse, strain HRA/Skh (hairless), females, in feed, site: skin, lesion: several types, types named in the paper, dosed 52 weeks, study length 80 weeks) was 56.8 mg/kg/day (inactive), the TD50 (mouse, strain HRA/Skh (hairless), females, in feed, site: skin, lesion: squamous-cell carcinoma, dosed 52 weeks, study length 80 weeks) was 48.9 mg/kg/day (inactive) and the TD50 (mouse, strain HRA/Skh (hairless), females, in feed, site: skin, lesion: squamous-cell papilloma, dosed 52 weeks, study length 80 weeks) was 151 mg/kg/day (inactive). The carcinogen call (mouse, strain HRA/Skh (hairless), males, in feed, site: skin, lesion: several types, types named in the paper, dosed 52 weeks, study length 80 weeks) was “negative (inactive)”, the carcinogen call (mouse, strain HRA/Skh (hairless), males, in feed, site: skin, lesion: squamous-cell carcinoma, in situ, dosed 52 weeks, study length 80 weeks) was “negative (inactive)” and the carcinogen call (mouse, strain HRA/Skh (hairless), males, in feed, site: skin, lesion: squamous-cell carcinoma, dosed 52 weeks, study length 80 weeks) was “negative (inactive)”. The TD50 (mouse, strain HRA/Skh (hairless), males, in feed, site: skin, lesion: squamous-cell papilloma, dosed 52 weeks, study length 80 weeks) was 137 mg/kg/day (inactive), the TD50 (rat, strain Fischer 344, females, by gavage, site: any site (literature study), lesion: several types, types named in the paper, dosed 103 weeks, study length 105 weeks) was 45.6 mg/kg/day and the TD50 (rat, strain Fischer 344, females, by gavage, site: liver, lesion: hepatocellular adenoma + hepatocellular carcinoma + neoplastic nodule, dosed 103 weeks, study length 105 weeks) was 5140 mg/kg/day. The TD50 (rat, strain Fischer 344, females, by gavage, site: palate + tongue, lesion: squamous-cell papilloma, dosed 103 weeks, study length 105 weeks) was 333 mg/kg/day (inactive), the TD50 (rat, strain Fischer 344, males, by gavage, site: Zymbal's gland, lesion: carcinoma, NOS + squamous-cell carcinoma, dosed 103 weeks, study length 105 weeks) was 101 mg/kg/day and the TD50 (rat, strain Fischer 344, males, by gavage, site: any site (literature study), lesion: several types, types named in the paper, dosed 103 weeks, study length 105 weeks) was 16.1 mg/kg/day. It also gave a TD50 (rat, strain Fischer 344, males, by gavage, site: kidney + Zymbal's gland, lesion: tubular-cell adenoma + tubular-cell adenocarcinoma + carcinoma, NOS + squamous-cell carcinoma, dosed 103 weeks, study length 105 weeks) of 27.3 mg/kg/day, a TD50 (rat, strain Fischer 344, males, by gavage, site: kidney, lesion: tubular-cell adenocarcinoma, dosed 103 weeks, study length 105 weeks) of 167 mg/kg/day and a TD50 (rat, strain Fischer 344, males, by gavage, site: kidney, lesion: tubular-cell adenoma + tubular-cell adenocarcinoma, dosed 103 weeks, study length 105 weeks) of 32.4 mg/kg/day. The TD50 (rat, strain Fischer 344, males, by gavage, site: kidney, lesion: tubular-cell adenoma, dosed 103 weeks, study length 105 weeks) was 43.2 mg/kg/day, the TD50 (rat, strain Fischer 344, males, by gavage, site: lung, lesion: alveolar/bronchiolar adenoma + alveolar/bronchiolar carcinoma, dosed 103 weeks, study length 105 weeks) was 57.1 mg/kg/day and the TD50 (rat, strain Fischer 344, males, by gavage, site: lung, lesion: alveolar/bronchiolar adenoma, dosed 103 weeks, study length 105 weeks) was 57.1 mg/kg/day. The TD50 (rat, strain Fischer 344, males, by gavage, site: lung, lesion: alveolar/bronchiolar carcinoma, dosed 103 weeks, study length 105 weeks) was 488 mg/kg/day, the TD50 (rat, strain Fischer 344, males, by gavage, site: pancreas, lesion: acinar-cell adenoma, dosed 103 weeks, study length 105 weeks) was 113 mg/kg/day and the TD50 (rat, strain Fischer 344, males, by gavage, site: subcutaneous tissue, lesion: fibroma + sarcoma, NOS, dosed 103 weeks, study length 105 weeks) was 70.2 mg/kg/day. For the same compound, the TD50 (rat, strain Fischer 344, males, by gavage, site: subcutaneous tissue, lesion: fibroma, dosed 103 weeks, study length 105 weeks) was 72.6 mg/kg/day and the TD50 (rat, strain Fischer 344, males, by gavage, site: testis, lesion: interstitial-cell tumor, dosed 103 weeks, study length 105 weeks) was 14.6 mg/kg/day.

For O=NC(=O)CCNCCO, the TD50 (hamster, strain Syrian Golden, females, by gavage, site: liver, lesion: cholangioadenoma/carcinoma, dosed 50 weeks, study length 65 weeks) was 2.68 mg/kg/day, the TD50 (hamster, strain Syrian Golden, females, by gavage, site: liver, lesion: cholangiocarcinoma, dosed 50 weeks, study length 65 weeks) was 5.58 mg/kg/day and the TD50 (hamster, strain Syrian Golden, females, by gavage, site: liver, lesion: hepatocellular adenoma, dosed 50 weeks, study length 65 weeks) was 5.58 mg/kg/day. The TD50 (hamster, strain Syrian Golden, females, by gavage, site: liver, lesion: hepatocellular carcinoma/adenoma, dosed 50 weeks, study length 65 weeks) was 3.72 mg/kg/day, the TD50 (hamster, strain Syrian Golden, females, by gavage, site: liver, lesion: several types, types named in the paper, dosed 50 weeks, study length 65 weeks) was 0.997 mg/kg/day and the TD50 (hamster, strain Syrian Golden, females, by gavage, site: lung, lesion: adenoma, dosed 50 weeks, study length 65 weeks) was 31.3 mg/kg/day. For the same compound, the TD50 (hamster, strain Syrian Golden, females, by gavage, site: pancreatic duct, lesion: carcinoma, dosed 50 weeks, study length 65 weeks) was 3.72 mg/kg/day, the TD50 (hamster, strain Syrian Golden, females, by gavage, site: pancreatic duct, lesion: several types, types named in the paper, dosed 50 weeks, study length 65 weeks) was 2.31 mg/kg/day and the TD50 (rat, strain Fischer 344, females, in drinking water, site: liver, lesion: hepatocellular carcinoma, dosed 50 weeks, study length 120 weeks) was 2.7 mg/kg/day. For the same compound, the TD50 (rat, strain Fischer 344, females, in drinking water, site: liver, lesion: neoplastic nodule, dosed 50 weeks, study length 120 weeks) was 2.7 mg/kg/day and the TD50 (rat, strain Fischer 344, females, in drinking water, site: liver, lesion: several types, types named in the paper, dosed 50 weeks, study length 120 weeks) was 1.8 mg/kg/day.

With CCN(Cc1cccc(S(=O)(=O)O)c1)c1ccc(C(=C2C=CC(=[N+](CC)Cc3cccc(S(=O)(=O)[O-])c3)C=C2)c2ccccc2)cc1 the TD50 (mouse, strain C3HeB/FeJ, females, in feed, site: any site (literature study), lesion: malignant tumor, dosed 104 weeks, study length 104 weeks) was 18400 mg/kg/day (inactive), the carcinogen call (mouse, strain C3HeB/FeJ, females, in feed, site: any site (literature study), lesion: several types, types named in the paper, dosed 104 weeks, study length 104 weeks) was “negative (inactive)” and the TD50 (mouse, strain C3HeB/FeJ, females, in feed, site: liver, lesion: several types, types named in the paper, dosed 104 weeks, study length 104 weeks) was 146000 mg/kg/day (inactive). The TD50 (mouse, strain C3HeB/FeJ, females, in feed, site: lung, lesion: adenoma, dosed 104 weeks, study length 104 weeks) was 146000 mg/kg/day (inactive), the carcinogen call (mouse, strain C3HeB/FeJ, males, in feed, site: any site (literature study), lesion: malignant tumor, dosed 104 weeks, study length 104 weeks) was “negative (inactive)” and the TD50 (mouse, strain C3HeB/FeJ, males, in feed, site: any site (literature study), lesion: several types, types named in the paper, dosed 104 weeks, study length 104 weeks) was 20800 mg/kg/day (inactive). For the same compound, the TD50 (mouse, strain C3HeB/FeJ, males, in feed, site: liver, lesion: several types, types named in the paper, dosed 104 weeks, study length 104 weeks) was 26100 mg/kg/day (inactive), the TD50 (mouse, strain C3HeB/FeJ, males, in feed, site: lung, lesion: several types, types named in the paper, dosed 104 weeks, study length 104 weeks) was 59200 mg/kg/day and the carcinogen call (rat, strain Osborne-Mendel, females, in feed, site: any site (literature study), lesion: malignant tumor, dosed 104 weeks, study length 104 weeks) was “negative (inactive)”. For the same compound, the TD50 (rat, strain Osborne-Mendel, females, in feed, site: any site (literature study), lesion: several types, types named in the paper, dosed 104 weeks, study length 104 weeks) was 97500 mg/kg/day, the TD50 (rat, strain Osborne-Mendel, females, in feed, site: liver, lesion: several types, types named in the paper, dosed 104 weeks, study length 104 weeks) was 13800 mg/kg/day and the carcinogen call (rat, strain Osborne-Mendel, males, in feed, site: any site (literature study), lesion: malignant tumor, dosed 104 weeks, study length 104 weeks) was “negative (inactive)”. It also gave a TD50 (rat, strain Osborne-Mendel, males, in feed, site: any site (literature study), lesion: several types, types named in the paper, dosed 104 weeks, study length 104 weeks) of 11400 mg/kg/day, a TD50 (rat, strain Osborne-Mendel, males, in feed, site: liver, lesion: several types, types named in the paper, dosed 104 weeks, study length 104 weeks) of 5980 mg/kg/day and a TD50 (rat, strain Wistar, both sexes, in feed, site: abdomen, lesion: malignant lymphoma, dosed 93 weeks, study length 93 weeks) of 8370 mg/kg/day. It also gave a TD50 (rat, strain Wistar, both sexes, in feed, site: mediastinum, lesion: malignant lymphoma, dosed 93 weeks, study length 93 weeks) of 8370 mg/kg/day and a TD50 (rat, strain Wistar, both sexes, in feed, site: several sites, sites named in the paper, lesion: malignant lymphoma, dosed 93 weeks, study length 93 weeks) of 3920 mg/kg/day.
